# Measured values as given in DBAASP.
# “And” between values parts separate entries of the source, which are not always exact repeats. Equal values may be shown once.
# What was measured:
# Test in all cases: ≥ marks a high value that may be exact or a test limit, other limits are often not marked, values filed in µg/mL are converted to µM
# [1] = system: Pseudomonas aeruginosa ATCC 27853
# [2] = system: Escherichia coli ATCC 25922
# [3] = system: Staphylococcus aureus ATCC 29213
# [4] = system: Staphylococcus aureus ATCC 25923
SMILES,MIC [1] [µM],MIC [2],MIC [3] [µM],MIC [4]
CC[C@H](C)[C@H](NC(=O)[C@H](Cc1ccc(O)cc1)NC(=O)[C@H](CCC(N)=O)NC(=O)[C@H](CC(C)C)NC(=O)[C@H](C)NC(=O)[C@H](CCCCN)NC(=O)[C@H](CCCCN)NC(=O)[C@@H](N)CCSC)C(=O)N[C@@H](CCCCN)C(=O)N[C@@H](CC(C)C)C(=O)N[C@@H](CC(C)C)C(=O)N[C@@H](CCCCN)C(=O)N[C@@H](CCC(=O)O)C(N)=O [MKKALQYIKLLKE],> 100,> 100 µM,,
CC(C)C[C@H](NC(=O)[C@H](C)NC(=O)[C@H](Cc1ccc(O)cc1)NC(=O)[C@H](CC(C)C)NC(=O)[C@H](CCCN=C(N)N)NC(=O)[C@H](C)NC(=O)[C@H](CC(C)C)NC(=O)[C@H](CO)NC(=O)[C@H](C)NC(=O)[C@H](CC(C)C)NC(=O)[C@H](CC(=O)O)NC(=O)[C@H](CCCN=C(N)N)NC(=O)[C@H](CCCN=C(N)N)NC(=O)[C@H](CCCN=C(N)N)NC(=O)[C@H](CCC(=O)O)NC(=O)[C@H](CCC(=O)O)NC(=O)[C@H](CO)NC(=O)[C@@H](NC(=O)[C@H](CCC(N)=O)NC(=O)[C@H](Cc1ccc(O)cc1)NC(=O)[C@@H](N)Cc1ccc(O)cc1)C(C)C)C(=O)N[C@@H](C)C(=O)N[C@@H](CCCN=C(N)N)C(N)=O [YYQVSEERRRDLASLARLYALAR],,> 250 µM,> 250,
CC[C@H](C)[C@H](NC(=O)CNC(=O)CNC(=O)[C@H](CC(C)C)NC(=O)[C@H](CC(C)C)NC(=O)[C@H](CO)NC(=O)CNC(=O)[C@@H](NC(=O)[C@H](CC(C)C)NC(=O)[C@@H](N)CC(N)=O)C(C)C)C(=O)N[C@@H](CC(C)C)C(=O)N[C@@H](CCCCN)C(=O)N[C@@H](CCCCN)C(N)=O [NLVGSLLGGILKK],,457 µM,> 534,
CC[C@H](C)[C@H](NC(=O)[C@H](CCCCN)NC(=O)[C@H](CO)NC(=O)[C@H](C)NC(=O)[C@H](Cc1c[nH]c2ccccc12)NC(=O)CN)C(=O)NCC(=O)N[C@H](C(=O)N[C@@H](CCC(N)=O)C(=O)N[C@@H](CC(C)C)C(=O)NCC(=O)N[C@@H](CCCCN)C(=O)N[C@@H](CCSC)C(=O)N[C@@H](C)C(=O)N[C@@H](CCCCN)C(=O)N[C@H](C(=O)NCC(=O)N[C@@H](CC(C)C)C(=O)N[C@@H](CCCCN)C(=O)N[C@@H](CCC(=O)O)C(=O)N[C@@H](Cc1ccccc1)C(=O)N[C@H](C(=O)N[C@@H](CCC(N)=O)C(=O)N[C@@H](CO)C(=O)O)C(C)C)C(C)C)[C@@H](C)O [GWASKIGTQLGKMAKVGLKEFVQS],,100 µM,,25 µM
NC(=O)[C@H](CCCN=C(N)N)NC(=O)[C@H](Cc1c[nH]c2ccccc12)NC(=O)[C@H](CCCN=C(N)N)NC(=O)[C@H](Cc1c[nH]c2ccccc12)NC(=O)[C@@H](N)CCCN=C(N)N [RWRWR],58.2,233 µM,,58.2 µM
CC[C@H](C)[C@H](NC(=O)[C@H](CCCCN)NC(=O)[C@H](C)NC(=O)[C@H](CCSC)NC(=O)[C@@H](NC(=O)[C@H](CCCCN)NC(=O)[C@H](CC(C)C)NC(=O)[C@H](Cc1ccccc1)NC(=O)[C@@H](NC(=O)[C@H](CC(=O)O)NC(=O)CNC(=O)[C@H](Cc1c[nH]c2ccccc12)NC(=O)CN)[C@@H](C)O)[C@@H](C)O)C(=O)N[C@@H](C)C(=O)N[C@@H](CCCCN)C(=O)N[C@H](C(=O)NCC(=O)N1CCC[C@H]1C(=O)N[C@@H](CCCCN)C(=O)N[C@@H](CC(C)C)C(=O)N[C@@H](CC(C)C)C(=O)N[C@@H](Cc1cnc[nH]1)C(=O)N[C@@H](CO)C(=O)O)C(C)C [GWGDTFLKTMAKIAKVGPKLLHS],,,,> 64 µM and 32 µM
CC[C@H](C)[C@H](NC(=O)[C@H](CCCCN)NC(=O)[C@H](CCCCN)NC(=O)[C@@H](NC(=O)[C@@H](NC(=O)[C@H](CCCCN)NC(=O)[C@H](Cc1ccccc1)NC(=O)[C@H](CC(C)C)NC(=O)CN)[C@@H](C)CC)[C@@H](C)CC)C(=O)N[C@@H](C)C(=O)N[C@@H](CCCCN)C(=O)N[C@@H](CO)C(=O)N[C@@H](Cc1ccccc1)C(N)=O [GLFKIIKKIAKSF],,16.7 µM and 33.5 µM,,
CSCC[C@H](NC(=O)[C@@H](N)CCCCN)C(=O)N[C@@H](CCCCN)C(=O)N[C@@H](CCCCN)C(=O)N[C@@H](C)C(=O)N[C@@H](CC(C)C)C(=O)N[C@@H](CCC(N)=O)C(=O)N[C@@H](Cc1ccc(O)cc1)C(N)=O [KMKKALQY],> 100,> 100 µM,,
CC[C@H](C)[C@H](NC(=O)[C@H](C)NC(=O)CNC(=O)[C@H](Cc1c[nH]c2ccccc12)NC(=O)[C@H](CC(N)=O)NC(=O)[C@@H](N)CC(C)C)C(=O)N[C@@H](CCCCN)C(=O)N[C@@H](CCCCN)C(=O)N[C@@H](Cc1cnc[nH]1)C(=O)N[C@H](C(=O)N[C@H](C(=O)N[C@@H](CCCCN)C(=O)O)[C@@H](C)CC)[C@@H](C)CC [LNWGAIKKHIIK],16,,,
CC(C)C[C@H](NC(=O)[C@H](Cc1ccccc1)NC(=O)[C@H](C)NC(=O)CNC(=O)[C@H](Cc1c[nH]c2ccccc12)NC(=O)[C@H](CC(N)=O)NC(=O)[C@@H](N)CC(C)C)C(=O)N[C@@H](CCCCN)C(=O)N[C@@H](Cc1cnc[nH]1)C(=O)N[C@@H](Cc1ccccc1)C(=O)N[C@@H](Cc1ccccc1)C(=O)N[C@@H](CCCCN)C(=O)O [LNWGAFLKHFFK],32,,,
CSCC[C@H](NC(=O)[C@H](CCCN=C(N)N)NC(=O)[C@H](Cc1c[nH]c2ccccc12)NC(=O)[C@H](CCC(N)=O)NC(=O)[C@H](Cc1c[nH]c2ccccc12)NC(=O)[C@H](CCCN=C(N)N)NC(=O)[C@@H](N)CCCN=C(N)N)C(=O)N[C@@H](CCCCN)C(=O)N[C@@H](CCCCN)C(=O)O [RRWQWRMKK],,186 µM,,
CC(C)C[C@H](NC(=O)[C@H](Cc1ccccc1)NC(=O)[C@@H]1CCCN1C(=O)[C@H](Cc1c[nH]c2ccccc12)NC(=O)[C@H](Cc1c[nH]c2ccccc12)NC(=O)[C@H](Cc1c[nH]c2ccccc12)NC(=O)[C@H](C)NC(=O)[C@H](Cc1ccccc1)NC(=O)[C@H](CCCCN)NC(=O)[C@H](CCCCN)NC(=O)[C@@H](N)C(C)C)C(=O)N[C@@H](CCCCN)C(=O)N[C@@H](CCCCN)C(N)=O [VKKFAWWWPFLKK],,32 µM,,

# Further lines, results first:
MIC [1] [µM],MIC [2],MIC [3] [µM],MIC [4],SMILES
,10 µM,> 40,,CC[C@H](C)[C@H](NC(=O)[C@H](CCCN=C(N)N)NC(=O)[C@H](CCC(N)=O)NC(=O)[C@@H](NC(=O)[C@@H](NC(=O)[C@H](CCCN=C(N)N)NC(=O)[C@H](CCCCN)NC(=O)[C@H](C)N)[C@@H](C)CC)C(C)C)C(=O)N[C@@H](CCCCN)C(=O)N[C@@H](CC(=O)O)C(=O)N[C@@H](Cc1ccccc1)C(=O)N[C@@H](CC(C)C)C(=O)N[C@@H](CCCN=C(N)N)C(=O)O [AKRIVQRIKDFLR]
,30 µM,,,CC[C@H](C)[C@H](NC(=O)[C@@H](NC(=O)[C@H](CC(=O)O)NC(=O)[C@H](CC(C)C)NC(=O)[C@H](CC(C)C)NC(=O)[C@H](CCC(N)=O)NC(=O)CNC(=O)[C@H](C)NC(=O)[C@H](CC(C)C)NC(=O)[C@H](CC(N)=O)NC(=O)[C@H](CCCCN)NC(=O)[C@H](C)NC(=O)[C@H](C)NC(=O)[C@H](CC(N)=O)NC(=O)[C@H](CCCCN)NC(=O)[C@@H](NC(=O)[C@@H](NC(=O)[C@H](CC(=O)O)NC(=O)[C@H](CCSC)NC(=O)[C@H](CC(C)C)NC(=O)CN)[C@@H](C)O)C(C)C)[C@@H](C)O)C(=O)N[C@@H](CCCCN)C(=O)N[C@H]1CSSC[C@@H](C(=O)O)NC(=O)CNC(=O)[C@H]([C@@H](C)O)NC(=O)[C@H](CCSC)NC(=O)[C@H](CCCCN)NC1=O [GLMDTVKNAAKNLAGQLLDTIKCKMTGC]
40,30 µM,,30 µM,CC(C)C[C@H](NC(=O)[C@H](CO)NC(=O)[C@@H](N)CCCCN)C(=O)N[C@H](C(=O)N[C@@H](CCCN=C(N)N)C(=O)N[C@@H](CCCN=C(N)N)C(=O)N[C@@H](Cc1c[nH]c2ccccc12)C(=O)N[C@@H](CCCN=C(N)N)C(=O)N[C@@H](CO)C(=O)N[C@@H](CCCN=C(N)N)C(=O)N[C@@H](Cc1c[nH]c2ccccc12)C(N)=O)C(C)C [KSLVRRWRSRW]
,4.05 µM,,,CC[C@H](C)[C@H](NC(=O)CNC(=O)[C@H](C)NC(=O)[C@@H](NC(=O)[C@H](CC(N)=O)NC(=O)[C@H](CCCCN)NC(=O)[C@H](C)NC(=O)[C@H](C)NC(=O)CNC(=O)[C@H](CCCCN)NC(=O)[C@@H](NC(=O)[C@@H](NC(=O)[C@H](CC(=O)O)NC(=O)[C@H](CC(C)C)NC(=O)[C@H](CC(C)C)NC(=O)[C@H](CC(C)C)NC(=O)CN)[C@@H](C)O)C(C)C)C(C)C)C(=O)N[C@@H](CC(C)C)C(=O)N[C@@H](CC(C)C)C(=O)N[C@@H](CC(N)=O)C(=O)N[C@@H](CCCCN)C(=O)N[C@@H](CC(C)C)C(=O)N[C@@H](CCCCN)C(=O)N[C@H]1CSSC[C@@H](C(=O)O)NC(=O)[C@H](CC(=O)O)NC(=O)CNC(=O)[C@H]([C@@H](C)O)NC(=O)[C@H](CCSC)NC(=O)[C@H](CCCCN)NC1=O [GLLLDTVKGAAKNVAGILLNKLKCKMTGDC]
,8 µM,,,CC(C)C[C@H](NC(=O)[C@H](Cc1ccccc1)NC(=O)[C@@H]1CCCN1C(=O)[C@H](C)NC(=O)[C@H](Cc1c[nH]c2ccccc12)NC(=O)[C@H](Cc1c[nH]c2ccccc12)NC(=O)[C@@H]1CCCN1C(=O)[C@H](Cc1ccccc1)NC(=O)[C@H](CCCN=C(N)N)NC(=O)[C@H](CCCN=C(N)N)NC(=O)[C@@H](N)C(C)C)C(=O)N[C@@H](CCCN=C(N)N)C(=O)N[C@@H](CCCN=C(N)N)C(N)=O [VRRFPWWAPFLRR]
1.44,1.44 µM,,1.44 µM,C[C@H](NC(=O)[C@H](Cc1ccccc1)NC(=O)[C@H](C)NC(=O)[C@H](Cc1ccccc1)NC(=O)[C@H](CCCCN)NC(=O)[C@H](C)NC(=O)[C@H](Cc1ccccc1)NC(=O)[C@H](CCCCN)NC(=O)[C@H](CCCCN)NC(=O)[C@H](C)NC(=O)[C@H](Cc1ccccc1)NC(=O)[C@H](CCCCN)NC(=O)[C@H](CCCCN)NC(=O)[C@H](Cc1ccccc1)NC(=O)[C@H](CCCCN)NC(=O)[C@H](CCCCN)NC(=O)[C@H](C)NC(=O)[C@H](Cc1ccccc1)NC(=O)[C@H](CCCCN)NC(=O)[C@H](CCCCN)NC(=O)[C@H](C)NC(=O)[C@@H](N)Cc1ccccc1)C(=O)N[C@@H](Cc1ccccc1)C(N)=O [FAKKFAKKFKKFAKKFAKFAFAF]
